Test results reported in publication PMC6379104 (Clinical pharmacology and therapeutics, 2018).
Where “and” joins values, the source holds several entries; their conditions need not be identical. Identical values can stand only once. Like-named read-outs stand apart in the source and are kept apart here. One block for each compound: values may come before it.

Assays:
[1] = system: latent HIV in Bcl-2-transduced primary CD4+ T cells; details: cited from earlier work
[2] = Population pharmacokinetic model of plasma disulfiram and four metabolites
[3] = system: plasma HIV RNA; details: following administration of vorinostat; cited from earlier work
[4] = system: CA-US HIV RNA; details: following administration of vorinostat; cited from earlier work
[5] = system: plasma HIV RNA; type: in vivo, HIV-1
[6] = system: plasma HIV RNA; details: three consecutive days of DSF; cited from earlier work
[7] = clinical; details: human, in vivo
[8] = system: cell-associated unspliced (CA-US) HIV RNA; type: in vivo, HIV-1
[9] = in humans; cited from earlier work
[10] = system: cell-associated unspliced (CA-US) HIV RNA; details: three consecutive days of DSF at all doses (500, 1000, 2000 mg); cited from earlier work
[11] = system: plasma HIV RNA; details: DSF 500 mg for 14 days; cited from earlier work
[12] = system: cell-associated HIV DNA; details: three consecutive days of DSF; cited from earlier work
[13] = final PK model, estimate (RSE %)
[14] = model estimate at AUC0–72 of 2270 mg*h/L (500 mg dose group median)

SMILES: CCN(CC)C(=S)S [M1, N,N-diethyldithiocarbamate]
activation of latent HIV in vitro [1]: reactivated latent HIV | Km (Michaelis-Menten constant, concentration at which elimination is half maximal) [2, 13]: 480 (6.2) ng/mL | V (volume of distribution) [2, 13]: 0.0906 (16.6) L

V (volume of distribution) [2, 13]: 0.0647 (15.6) L
SMILES: CCN(CC)C(=O)[S+](C)[O-] (stereo not drawn) [M3, S-methyl-N,N-diethylthiolcarbamate sulfoxide]

SMILES: O=C(CCCCCCC(=O)Nc1ccccc1)NO [vorinostat]
change in plasma HIV RNA [3]: a significant change in plasma HIV RNA was not observed | change in CA-US HIV RNA [4]: significant increases

SMILES: CCN(CC)C(=O)SC[C@H](NC(=O)CC[C@H](N)C(=O)O)C(=O)NCC(=O)O [M4, carbamathione]
Km (Michaelis-Menten constant, concentration at which elimination is half maximal) [2, 13]: 543 (4.3) ng/mL | V (volume of distribution) [2, 13]: 0.581 (10.3) L

SMILES: CCN(CC)C(=S)SC [M2, diethyldithiocarbamate-methyl ester]
activation of latent HIV in vitro [1]: but not M2 (DDTC-Me), reactivated latent HIV | Q (flow from central compartment to periphery) [2, 13]: 0.0776 (14.0) | V (volume of distribution) [2, 13]: 0.00404 (8.0) L | Vperiph (calculated peripheral volume) [2, 13]: 28.9 (17.3) L

SMILES: CCN(CC)C(=S)SSC(=S)N(CC)CC [DSF, Disulfiram]
median change in plasma HIV RNA ([5]; by day 31, 2000 mg group): 1.17 copies/mL | median change in plasma HIV RNA ([5]; during the treatment dosing period, 500 mg group): -0.22 copies/mL | exposure-response between AUC0–72 and plasma HIV RNA ([5]; negative binomial regression models): a statistically significant exposure-response was not observed | change in plasma HIV RNA [6]: increased, but only at day 31 and only in participants receiving the highest dose (2000 mg) | Km [7]: 0.217 µg/mL | AUC50 ([8]; exposure-response of AUC0–72 on CA-US HIV RNA): 1600 µg·h/L | Emax ([8]; increase in CA-US HIV RNA): 78% | Emax (fraction increase) ([8]; increase in CA-US HIV-1 RNA, estimate (RSE %)): 78 (13.6) | potential participants achieving >90% of Emax [8, 14]: over 70% | potential participants achieving less than a third of Emax [8, 14]: 15% | potential participants achieving >98% of Emax ([8]; model estimate at AUC0–72 of 3883 mg*h/L (lowest in 1000 mg dose group)): 95% | exposure-response relationship of AUC0–72 on CA-US RNA ([8]; negative binomial PK/PD models, all three baseline values): statistically significant exposure-response relationship | activation of latent HIV in vitro [1]: reactivated latent HIV | estimated half-life [9]: about 7 hours | change in CA-US RNA [10]: statistically significant dose-dependent increases | change in plasma HIV RNA [11]: transient but non-statistically significant increases | time by which drug was completely eliminated ([2]; 3 consecutive daily doses): ≤ 72 h | BV (%) in CL/F (between-subject variability) [2, 13]: 36% and 36 (14) % | V (volume of distribution) [2, 13]: 1.29 (9.1) L | Vd ([2]; human, plasma, oral, V (volume of distribution), final PK model, estimate (RSE %)): 1.3 L | change in CA-DNA [12]: no significant differences
